# Where two headings read alike, the source gives them in different places. Where a SMILES comes first, the peptide text is derived from it. Bridges are numbered along the chain shown (N, C = ends). [ ]: non-standard residue; d: D form.
# Experiments:
# [1] = tested on: ischemic reperfusion injury in mouse heart; experiment: In vivo pressure-volume relationships after I/R (left ventricular catheterization); design: species or system C57B1/6J mice; conditions: 50 mg/kg IP pretreatment, 24 h reperfusion
# Protocol: In order to determine hemodynamic differences, we measured the pressure-volume (P-V) relationships in real time in 3 groups of mice, including a sham group that was exposed to the open heart operation but not FR, and the two I/R (20min ischemia/24h reperfusion) induced groups pretreated with either vehicle or GsMTx4-D. To measure the P-V relationships, mice were anesthetized with 4% isoflurane and 100% O2, quickly intubated and ventilated with a respirator. […] The rib cage was slightly retracted and the diaphragm was gently cut away to attain an apical view of the myocardium. A 27-gauge needle was inserted into the apex of the LV free wall to create a guide-hole. A 1.2-French microtransducer pressure-volume impedance catheter (Scisense, London, ON, CA) was then inserted into the lumen of LV to assess real-time LV function. Hemodynamic parameters such as heart rate, cardiac output, and ejection fraction were measured and calculated with the iWorx software (Dover, N.H.). Each group included 5 (sham and GsMTx4-D) to 6 (vehicle) independent experiments.
# To examine the effects of GsMTx4-D on hemodynamics, we compared the P-V relationships between the GsMTx4-D (50 mg/kg) and vehicle (saline 50 μL) in pretreated mice. After 20 min of ischemia followed by 24 h reperfusion, the left ventricle was catheterized to acquire real time P-V relationships (FIG. 3). […] In addition, GsMTx4-D produced improvements in both end systolic and diastolic volumes (FIG. 3 H and I) that led to a significant improvement in ejection fraction (61.7±3.4%, P<0.05) (FIG.3 G). Clearly, GsMTx4-D improves heart function after FR.
# [2] = Single-dose pharmacokinetic study, plasma and heart concentration by LC/MS/MS; format: in vivo, CD-1 mice; conditions: for Tmax: female, CD-1, mouse, plasma and heart
# Protocol: For single-dose pharmacokinetic studies, 7-9 week old female CD-1 mice were obtained from Charles River Laboratories, Inc. by Covance Laboratories Inc., Greenfield, Ind., USA. For subcutaneous injection, GsMTx4-D was dissolved at a concentration of 7.5 mg/ml in phosphate buffered saline pH 7.4 and injected subcutaneously into the back of mice at a net dose of 50 mg/kg. For intravenous (IV) administration into the tail vein, 1.5 mg/ml GsMTx4-D was used to achieve a dose of 5 mg/kg. Animals were sacrificed at 5, 15, 30, 60, 120, 480, 960 and 1920 min after injection, and blood and heart tissue samples were harvested. Animals were checked for death or morbidity during the whole trial. At the conclusion of each trial period, mice were euthanized by CO2 inhalation for 10 min. Blood samples were treated with sodium heparin and centrifuged to obtain plasma. There were cohorts of 3 mice per time point, and tissue samples from the 3 animals were combined from each time point to create average samples. Samples were sent to Custom Biologics, Mississauga, ON, Canada to measure the amount of GsMTx4 by liquid chromatography tandem mass spectrometry (LC/MS/MS) in the tissue samples. A reference standard was included in each sample consisting of a functional mutant of GsMTx4-D (F34A). All procedures in this protocol are in compliance with the U.S. Department of Agriculture's (USDA) Animal Welfare Act (9 CFR Parts 1, 2, and 3); the Guide for the Care and Use of Laboratory Animals: Eighth Edition, (Institute for Laboratory Animal Research, The National Academies Press, Washington, D.C., 2010); and the National Institutes of Health, Office of Laboratory Animal Welfare. Whenever possible, procedures in this study were designed to avoid or minimize discomfort, distress, and pain to animals. For ischemic reperfusion (I/R) testing, we used male C57B1/6J mice (4-6 months of age) obtained from Jackson Laboratories (Bar Harbor, […].). All animal protocols in this study were approved by the Institutional Animal Care and Use Committee of the University at Buffalo-State University of New York.
# To provide a frame of reference for concentration and timing, we compared IV (fast absorption) to subcutaneous (slow absorption) administration and determined the distribution of the peptide in the heart and plasma over 24 hrs using LC/MS/MS (FIG. 1). Mice were sacrificed at different times after injection and the plasma (FIG. 1A) and heart (FIG. 1B) concentrations sampled. […] The samples from the 3 mouse cohorts at each time point were mixed and averaged. […] IV injection of 5 mg/kg GsMTx4-D produced an early spike in plasma concentration ([…] at 5 min) that decayed within 30 min. […] We used 1-5 μM ([…] is 1 μM) as our target concentration for treatment. IV injection of 5 mg/kg GsMTx4-D produced plasma concentrations within 5 minutes that were substantially above the target concentration while whole heart concentrations were somewhat lower than this range. Other ranges may be used for treatment, such as about 1.5-4.5 μM, about 2-4 μM, about 2.5-3.5 μM, about 1-4 μM, about 1-3 μM and about 1-2 μM. The whole heart concentration was lower than the target range within 5 minutes of IV injection, but the net plasma concentrations were acceptable.
# Based on the slower distribution by subcutaneous administration, we injected 10 times the concentration of GsMTx4-D as that used in IV injection. The concentrations increased more slowly in both plasma and heart, peaking in ˜2 hrs, although we could reliably detect it in both tissues within 5 minutes. […] Without being bound by any theory, we believe that this is likely due to deeper infiltration into the tissue, and possibly higher affinity associations.
# [3] = subcutaneous injection 50 mg/kg
smiles,measurement,setting,value
"CC(C)C[C@H]1NC(=O)[C@H](NC(=O)CN)CSSC[C@H]2NC(=O)[C@H]3CSSC[C@H](C(=O)N[C@H](CC(N)=O)C(=O)N[C@H](Cc4ccccc4)C(=O)N[C@H](CO)C(=O)N[C@H](Cc4ccccc4)C(N)=O)NC(=O)[C@@H](CC(C)C)NC(=O)[C@@H](CCCCN)NC(=O)[C@@H](Cc4ccccc4)NC(=O)[C@@H](CC(C)C)NC(=O)[C@@H](CCCCN)NC(=O)[C@@H](CO)NC(=O)[C@@H](CSSC[C@@H](NC(=O)[C@@H](CCCCN)NC(=O)[C@@H](Cc4c[nH]c5ccccc45)NC(=O)[C@@H](Cc4c[nH]c5ccccc45)NC(=O)[C@@H](Cc4ccccc4)NC(=O)[C@@H](CCC(=O)O)NC1=O)C(=O)N[C@H](CC(N)=O)C(=O)N1CCC[C@@H]1C(=O)N[C@H](CC(N)=O)C(=O)N[C@H](CC(=O)O)C(=O)N[C@H](CC(=O)O)C(=O)N[C@H](CCCCN)C(=O)N3)NC(=O)[C@@H](CCCCN)NC(=O)[C@@H](CC(C)C)NC(=O)[C@@H](CCCCN)NC(=O)[C@H]1CCCN1C(=O)[C@@H](CCCNC(=N)N)NC2=O [GsMTx4-D] (H-G[dC][dL][dE][dF][dW][dW][dK][dC][dN][dP][dN][dD][dD][dK][dC][dC][dR][dP][dK][dL][dK][dC][dS][dK][dL][dF][dK][dL][dC][dN][dF][dS][dF]-NH2; disulfide 2-17, 9-23, 16-30 (inferred); N-terminus and C-terminus assumed)",stroke volume,"[1]; vehicle 18.9±2.3, sham 26.7±1.9",26.2 ± 1.9 µL
same,ejection fraction,"[1]; vehicle 44.4±4.9, sham 75.5±6.4",61.7±3.4%
same,heart rate,"[1]; vehicle 243.9±6.9, sham 304.0±23.6",298.7±14.3 bpm
same,cardiac output,"[1]; vehicle 4636±602, sham 8039±690",77580 ± 321 µL/min
same,end systolic and diastolic volumes,[1]; vs vehicle,improvements
same,death or abnormal behavior during PK study,[2]; IV 5 mg/kg or subcutaneous 50 mg/kg,"No mice died during the study, nor did any show abnormal behavior"
same,time within which plasma concentration spike decayed,[2]; IV injection of 5 mg/kg,≤ 30 min
same,Tmax,"[2]; 5 mg/kg, after IV injection, read-out: time of concentration spike in plasma and heart",< 0.0833 h
same,Tmax,"[2]; sc, subcutaneous injection 50 mg/kg, read-out: time of peak concentration in plasma and heart",~2 h
same,half-life,"[2]; mouse, in vivo, D form",> 24 h
same,heart concentration twenty four hours after injection,"[2]; single 50 mg/kg subcutaneous injection, target range 1-5 μM",near the target range
same,plasma concentration by 24 hrs,[2]; [3],nearly undetectable
same,time of peak concentration in plasma and heart,[2]; [3],~2 h
